“And” between values parts separate entries of the source, which are not always exact repeats. Identical values can stand only once. “Also recorded” adds a separate entry of the source.
Experiments:
[1] = Plasma levels of 4-AP after intravenous infusion (column liquid chromatography); format: in vivo, human
Experimental: The drug was obtained in purified powder form from the Regis Chemical Company (Morton Grove, Ill.) and prepared as an injectable solution, using a 0.9% saline vehicle (Uges and Huizinga, 1981), by the pharmacy of St. Joseph's Hospital. The pharmacy was also responsible for testing pyrogenicity, randomizing the order in which drug and vehicle were administered to different patients, and for providing an escalating scale of dosage during the course of the study. The 4-AP for the first two patients was prepared at a concentration of 3 mg/ml, and the concentration was increased to 4 and 5 mg/ml for succeeding subjects (see Table 1). The drug was further diluted by a factor of 50 times in dextrose saline before delivery, and was administered in the form of a continuous intravenous infusion at a rate of 150 ml/hr controlled by a peristaltic infusion pump. Therefore the delivery rate of the drug increased from 9 mg/hr in the first two patients to 15 mg/hr in the last four. Total intended dosage ranged from 18 to 30 mg. The vehicle control was indistinguishable from the drug solution and was delivered in an identical manner.
(§1) The schedule of each trial was the same. The patient was admitted to the hospital on the preceding day and in the early morning was assessed by neurological examination and electro-diagnostic evaluation. Administration of the drug or placebo, through an in dwelling venous catheter, was then begun and continued for approximately 2 hours, arranged in 20 minute sequences based on delivery of 1 ml aliquots of the 4-AP solution. The patient was monitored electroencephalographically at frequent intervals throughout the procedure. Samples of blood and urine were obtained from an additional intravenous catheter and from the urinary catheter respectively. Blood was obtained at intervals up to 5 hours from the beginning of drug delivery and urine obtained pre-infusion and at 1 and 2 hours after the beginning of infusion. The patients were re-evaluated by complete neurological examination, by the same examiner, at the end of the period of drug delivery. They were then re-examined with the electrodiagnostic tests. A more limited neurological examination was sometimes performed during drug delivery in an attempt to identify any early changes, without producing significant testing fatigue. The electrodiagnostic tests were repeated at 2 hours after the cessation of drug delivery. Patients showing apparent effects of the treatment remained in the hospital overnight and were examined on the following day. Subsequent contact with the patients was by telephone interview or as a result of their correspondence regarding longer term changes associated with their treatment.
(§2) Two of the patients who reported more prolonged effects of the drug were returned to the hospital after 4 months for a second, unblinded trial, which included neurological examinations daily for 3-4 days. Plasma samples were also obtained daily from these two patients, for measurement of 4-AP.
Measurement of 4-AP in plasma and urine
Samples of blood were collected from an in dwelling venous catheter in the arm opposite that into which the drug was delivered. Ten or eleven such samples were obtained at intervals up to 5 hours after the initiation of drug delivery (see FIG. 1). Urine samples were withdrawn from the patients' urinary catheter bags at 1 and 2 hours after the initiation of drug infusion.
Plasma and urine samples were stored at -80° C. until 4-AP levels were analyzed by means of column liquid chromatography, according to a technique described in detail elsewhere (Kostka et al, 1992). Briefly, both plasma and urine samples were subjected to benzoylation by the Schotten-Baumann reaction to convert 4-AP to N-benzoyl-4-AP (Bz4-AP) prior to liquid-liquid -extraction. Propionyl procainamide (PPA) was chosen as the internal standard. […]

[2] = system: spinal cord injured patients; experiment: Neurological examination, motor and sensory score (modified ASIA standards), double-blind placebo-controlled crossover study; format: in vivo, human; design: key to change in sensory score, -ve / change in sensory score, +ve / change in sensory score, -ve, TOTAL: change in summed sensory points (each item graded 0-4)
Experimental: The experimental design was a double-blind, placebo-controlled, crossover study in which each patient was administered the drug and a vehicle control on different occasions, separated by two weeks. The order of delivery was randomized.
as §1, §2
Patients were evaluated using a modified form of the American Spinal Injury Association (ASIA) Standards for Neurological Classification of Spinal Injury Patients (revised 1990). The modifications were mainly required to simplify the examination so that it could be performed on patients lying on a bed with intravenous catheters, electrodes and urethral catheters restricting the range of motion. Examinations performed after the day of drug delivery were made on an outpatient basis with the subjects partially clothed, and evaluation of dermatomes was sometimes incomplete. Each part of the examination was videotaped for later review and was repeated on the two sides of the body.
Grading of motor abilities was made on the ASIA 0-5 point scale wherever possible:
0--absent (total paralysis)
1--trace (palpable or visible contraction producing little or no movement around joint)
2--poor (active movement through much or all of the normal range of motion, with gravity eliminated--where relevant)
3--fair (active movement through full range of motion against gravity)
4--good (active movement against resistance)
The muscles examined included: deltoid, biceps, triceps, wrist extensors, wrist flexors, finger flexors and extensors (combined), hip flexors (iliopsoas), hip extensors, quadriceps, hamstrings, ankle dorsiflexors (tibiails anterior) and plantarflexors (gastrocnemius, soleus), and toe extensors (extensor hallucis longus). The total possible score for the full motor examination was 130.
Sensory abilities were graded on an analogous 0-4 point scale:
0--absent (no ability to detect the stimulus)
1--trace (patchy or variable ability to detect stimulus with little or no resolution of quality)
2--light (able to detect stimulus but much weaker, or of altered quality relative to equivalent unaffected areas) […]

[3] = system: surviving myelinated axons of spinal cord; details: single nerve fibers; cited from earlier work
[4] = 2 hours after infusion of 4-AP, total of 8 subjects
[5] = 2 hours after infusion of 4-AP, total of 8 subjects, without vibration
[6] = 2 hours after infusion of 4-AP, total possible 130, one line per subject: b160 RB, b161 SC, HT, LJ, EB, GCh, AW, GCu
[7] = 2 hours after infusion of 4-AP, total possible 224, without vibration, one line per subject: b160 RB, b161 SC, HT, LJ, EB, GCh, AW, GCu

Structure (SMILES): Nc1ccncc1 [4-AP, 4-aminopyridine]
- plasma level of 4-AP after end of infusion ([1]; 2-3 hours after the end of infusion, all subjects): significant plasma level
- plasma level remaining relative to peak level ([1]; by 2 days after the infusion, from rate of decline in two patients): less than 1%
- correlation of peak plasma level with dose administered ([1]; dose in mg/kg/hr (FIG. 2)): correlated significantly
- concentration at 48 h ([1]; human, plasma, iv, 48 hours / 2 days after second, unblinded administration, subjects, read-out: 4-AP plasma concentration (below limit of detection)): < 3 ng/mL
- time of peak level in the circulation ([1]; i.v. infusion approximately 2 hours): slightly before or after the end of the infusion period
- peak plasma level achieved for each mg/kg infused ([1]; i.v. infusion over approximately 2 hours, least squares regression, per mg/kg): approximately 0.27 mg/l
- plasma level of 4-AP the day after infusion ([1]; second administration, two subjects): detectable levels of the drug in the plasma the day after infusion
- correlation of time course of elimination with prolonged neurological effects ([1]; two subjects, 3-4 days): clearly did not correlate
- oscillation of measured drug levels ([1]; up to 5 hours from start of infusion, most subjects): some degree of oscillation of the measured drug levels; also recorded: oscillation in the measured drug levels
- change in motor score, +ve, TOTAL [2, 4]: +26
- change in motor score, -ve, TOTAL [2, 4]: 0
- change in sensory score, +ve, TOTAL [2, 5]: +66
- change in sensory score, -ve, TOTAL [2, 5]: -7
- change in motor score, +ve [2, 6]: 0 and +4 and +16 and +2
- change in motor score, -ve [2, 6]: 0
- change in sensory score, +ve [2, 7]: 0 and +3 and +2 and +14 and +27 and +20
- change in sensory score, -ve [2, 7]: 0 and -5 and -2
- initial pinprick response in most distal dermatomes ([2]; 2 hours after infusion, second trial): initial depression of response in the most distal dermatomes
- pinprick sensation and joint position sense below the lesion ([2]; 24 hours, not seen at 2 hours, subject three): striking improvement of pinprick sensation and joint position sense below the lesion
- persistence of motor score increase ([2]; 24 hours, second trial, subject four): increases in score were sustained at 24 hours after infusion
- persistence of pinprick improvement ([2]; 48 hours post infusion, second trial, EB and GCh): still detectable at 48 hour post infusion in both cases
- reversal of sensory effect ([2]; 72 hours, subject GCh, second trial): returned completely to pre-infusion status; also recorded: entirely reversed by 72 hours
- time of maximal motor improvement ([2]; after infusion, second trial, subject four (FIG. 5)): 2 h
- time of maximal improvement in sensory (pinprick) score ([2]; after infusion, second trial, subjects): 24 h
- motor performance, greater endurance / reversal of leg muscle rigidity effects ([2]; second administration, leg muscles, hip and knee): reduction in the spasticity of leg muscles led at times to a reduction of motor power
- pinprick sensation below level of injury ([2]; second, unblinded administration, EB and GCh): remarkable increase in the response to pinprick stimulation below the level of injury
- overcoming of conduction block [3]: Some of this conduction block can be overcome
